Measured values taken from article PMC11267547, “Advancing drug discovery through assay development: a survey of tool compounds within the human solute carrier superfamily” (Frontiers in Pharmacology, 2024).

Assays:
NR1H4 = test system: NR1H4; design: method as in other_targets_pubmed_ids column; conditions: cited from earlier work
SLC6A15 = test system: SLC6A15; design: method as in ChEMBL, GtoPdb, pubmed 25318072; conditions: SLC6A15, known data from the KNIME workflow; ref ChEMBL, GtoPdb, pubmed 25318072; cited from earlier work
HTR2B = test system: HTR2B; design: method as in other_targets_pubmed_ids column; conditions: cited from earlier work
HRH1 = test system: HRH1; design: method as in other_targets_pubmed_ids column; conditions: cited from earlier work
KCNK9 = test system: KCNK9; design: method as in other_targets_pubmed_ids column; conditions: cited from earlier work
PTAFR = test system: PTAFR; design: method as in other_targets_pubmed_ids column; conditions: cited from earlier work
SLC6A19 = test system: SLC6A19; design: method as in GtoPdb, pubmed 30589598; conditions: SLC6A19, known data from the KNIME workflow; ref GtoPdb, pubmed 30589598; cited from earlier work
SLC2A9 (GLUT9) = conditions: cited from earlier work
SLC22A6 (OAT1) = conditions: cited from earlier work
ABCG2 = test system: ABCG2; design: method as in Zhao et al., 2022; conditions: ref Zhao et al., 2022; cited from earlier work
SLC22A12 (URAT1) = conditions: cited from earlier work
SCN2A = test system: SCN2A; design: method as in other_targets_pubmed_ids column; conditions: cited from earlier work
SLC2A1 = test system: SLC2A1; design: method as in ChEMBL, PubChem; conditions: SLC2A1, known data from the KNIME workflow; ref ChEMBL, PubChem; cited from earlier work
SLC2A4 = test system: SLC2A4; design: method as in ChEMBL, PubChem; conditions: SLC2A4, known data from the KNIME workflow; ref ChEMBL, PubChem; cited from earlier work
SLC6A4 = SLC6A4 (Homo sapiens, UniProt P31645)
SLC2A2 = test system: SLC2A2; design: method as in ChEMBL; conditions: SLC2A2, known data from the KNIME workflow; ref ChEMBL; cited from earlier work
SLC2A3 = test system: SLC2A3; design: method as in ChEMBL; conditions: SLC2A3, known data from the KNIME workflow; ref ChEMBL; cited from earlier work
SLC6A1 = test system: SLC6A1; design: method as in ChEMBL, GtoPdb; conditions: SLC6A1, known data from the KNIME workflow; ref ChEMBL, GtoPdb; cited from earlier work
SLC22A2 = test system: SLC22A2; design: method as in PMID 9260930; conditions: ChEMBL CHEMBL2076808; ref PMID 9260930; cited from earlier work
SLC29A4 = test system: SLC29A4; design: method as in PMID 16099839, 27506881; conditions: GtoPdb 1120; ref PMID 16099839, 27506881; cited from earlier work
SLC22A3 = test system: SLC22A3; design: method as in PMID 10966924; conditions: ChEMBL CHEMBL2078549; ref PMID 10966924; cited from earlier work
SLC22A1 = test system: SLC22A1; design: method as in PMID 18788725, 9655880, 28230985; conditions: ChEMBL CHEMBL994103, CHEMBL2076233, CHEMBL4009597; ref PMID 18788725, 9655880, 28230985; cited from earlier work
SIGMAR1 = test system: SIGMAR1; design: method as in pubmed 7990111, 9057857, 12801223; conditions: ref pubmed 7990111, 9057857, 12801223; cited from earlier work

Sequence of SLC6A4 (P31645 whole entry): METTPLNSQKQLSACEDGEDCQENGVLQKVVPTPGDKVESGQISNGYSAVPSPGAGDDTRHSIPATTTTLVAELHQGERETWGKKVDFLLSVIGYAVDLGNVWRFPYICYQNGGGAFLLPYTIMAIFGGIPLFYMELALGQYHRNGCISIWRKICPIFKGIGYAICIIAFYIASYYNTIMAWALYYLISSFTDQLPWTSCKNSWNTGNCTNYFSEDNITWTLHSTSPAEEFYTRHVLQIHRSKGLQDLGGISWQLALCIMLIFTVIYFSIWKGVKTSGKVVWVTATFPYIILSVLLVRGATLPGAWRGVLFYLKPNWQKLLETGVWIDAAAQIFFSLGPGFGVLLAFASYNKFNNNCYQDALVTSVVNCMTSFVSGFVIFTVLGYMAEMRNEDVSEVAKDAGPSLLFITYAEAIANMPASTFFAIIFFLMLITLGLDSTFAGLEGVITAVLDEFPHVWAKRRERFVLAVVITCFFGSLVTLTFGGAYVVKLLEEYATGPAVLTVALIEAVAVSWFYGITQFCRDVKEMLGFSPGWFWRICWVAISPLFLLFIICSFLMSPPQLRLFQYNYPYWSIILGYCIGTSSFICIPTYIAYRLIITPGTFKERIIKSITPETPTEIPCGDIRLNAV

In the case of `CCOC(=O)N1CCC(=C2c3ccc(Cl)cc3CCc3cccnc32)CC1` [Loratadine], the other_targets_act (NR1H4) is given as 5.51, the primary_SLC_act (SLC6A15) is given as 5.4 and the other_targets_act (HTR2B) is given as 6.71. The other_targets_act (HRH1) was 6.72, the other_targets_act (KCNK9) was 4.2 and the other_targets_act (PTAFR) was 4.3.

For `CCNC(=O)/C=C/c1cccc(Br)c1` [Cinromide], the primary_SLC_act (SLC6A19) is given as 6.4.

In the case of `N#Cc1ccc(Nc2cnccc2SCc2ccccc2C(=O)O)c2ccccc12` [KPH2f], the primary_SLC_act (SLC2A9 (GLUT9); SLC2A9, known data from the KNIME workflow, ref ChEMBL, pubmed 34998055) is given as 5.03, the IC50 (SLC2A9 (GLUT9); ref Zhao et al., 2022) is given as 9.37 µM and the “primary_SLC_act, SLC22A6” value (SLC22A6 (OAT1); ChEMBL CHEMBL5157441, ref PMID 34998055) is given as 4.49. For the same compound, the IC50 (SLC22A6 (OAT1); ref Zhao et al., 2022) was 32.1 µM, the IC50 (ABCG2) was 26.7 µM and the “primary_SLC_act, SLC22A12” value (SLC22A12 (URAT1); ChEMBL CHEMBL5157443, ref PMID 34998055) was 6.62. For the same compound, the IC50 (SLC22A12 (URAT1); ref Zhao et al., 2022) was 0.24 µM.

For `Nc1nc2ccc(OC(F)(F)F)cc2s1` [Riluzole], the other_targets_act (SCN2A) is listed as 5.66.

For `Cc1c(NC(=O)c2cc(C(N)=O)nc3cc(F)ccc23)c(C(F)(F)F)nn1Cc1ccc(C#N)cc1` [BAY-876], the primary_SLC_act (SLC2A1) is listed as 8.03, the primary_SLC_act (SLC2A4) is listed as 5.91 and the “dose–response effect on SERT activity under glucose-free conditions” value (SLC6A4; glucose-free conditions, HEK293–JumpIn–SLC6A4 cells) is listed as “could not be reproduced”. For the same compound, the “effect on SERT (SLC6A4) activity” value (SLC6A4; medium with glucose, in words) was “increase in SERT (SLC6A4) activity”, the primary_SLC_act (SLC2A2) was 5.03 and the primary_SLC_act (SLC2A3) was 5.56.

In the case of `Cc1ccsc1C(=CCCN1CCC[C@@H](C(=O)O)C1)c1sccc1C` [Tiagabine], the primary_SLC_act (SLC6A1) is listed as 7.18.

For `CNCCCN1c2ccccc2CCc2ccccc21` [Desipramine], the “primary_SLC_act, SLC22A2” value (SLC22A2) is listed as 4.8, the “primary_SLC_act, SLC29A4” value (SLC29A4) is listed as 4.49 and the “primary_SLC_act, SLC22A3” value (SLC22A3) is listed as 4.85. For the same compound, the “primary_SLC_act, SLC22A1” value (SLC22A1) was 5.04.

In the case of `Fc1ccc(C(OCCN2CCN(CCCc3ccccc3)CC2)c2ccc(F)cc2)cc1` [Vanoxerine (GBR12909), Vanoxerine], the other_targets_act (SIGMAR1) is given as 7.37.
